According to patent US20070149535A1, “Protein kinase inhibitors” (ONCALIS AG, priority 2004, published 2007):

Columns and labels:
Assay in all cases: Yeast growth assay, specificity profiling
Type in all cases: cell-based
Set-up in all cases: key: “−” indicates no growth restoration i.e. no activity against the particular kinase; “+”, “++”, and “+++” indicate activity detected by restoration of growth, classified into three categories of potency; “+”, “++”, and “+++” indicate activity detected by restoration of growth, classified into three categories of potency; “+”, “++”, and “+++” indicate activity detected by restoration of growth, classified into three categories of potency
Conditions in all cases: 7 concentrations between 0.2 and 100 μM
EphA2 = molecular target: T1, EphA2 (Homo sapiens, UniProt P29317)
T1 construct: expressed in transfected cells; host or cells: yeast
T1 sequence (P29317 24-976): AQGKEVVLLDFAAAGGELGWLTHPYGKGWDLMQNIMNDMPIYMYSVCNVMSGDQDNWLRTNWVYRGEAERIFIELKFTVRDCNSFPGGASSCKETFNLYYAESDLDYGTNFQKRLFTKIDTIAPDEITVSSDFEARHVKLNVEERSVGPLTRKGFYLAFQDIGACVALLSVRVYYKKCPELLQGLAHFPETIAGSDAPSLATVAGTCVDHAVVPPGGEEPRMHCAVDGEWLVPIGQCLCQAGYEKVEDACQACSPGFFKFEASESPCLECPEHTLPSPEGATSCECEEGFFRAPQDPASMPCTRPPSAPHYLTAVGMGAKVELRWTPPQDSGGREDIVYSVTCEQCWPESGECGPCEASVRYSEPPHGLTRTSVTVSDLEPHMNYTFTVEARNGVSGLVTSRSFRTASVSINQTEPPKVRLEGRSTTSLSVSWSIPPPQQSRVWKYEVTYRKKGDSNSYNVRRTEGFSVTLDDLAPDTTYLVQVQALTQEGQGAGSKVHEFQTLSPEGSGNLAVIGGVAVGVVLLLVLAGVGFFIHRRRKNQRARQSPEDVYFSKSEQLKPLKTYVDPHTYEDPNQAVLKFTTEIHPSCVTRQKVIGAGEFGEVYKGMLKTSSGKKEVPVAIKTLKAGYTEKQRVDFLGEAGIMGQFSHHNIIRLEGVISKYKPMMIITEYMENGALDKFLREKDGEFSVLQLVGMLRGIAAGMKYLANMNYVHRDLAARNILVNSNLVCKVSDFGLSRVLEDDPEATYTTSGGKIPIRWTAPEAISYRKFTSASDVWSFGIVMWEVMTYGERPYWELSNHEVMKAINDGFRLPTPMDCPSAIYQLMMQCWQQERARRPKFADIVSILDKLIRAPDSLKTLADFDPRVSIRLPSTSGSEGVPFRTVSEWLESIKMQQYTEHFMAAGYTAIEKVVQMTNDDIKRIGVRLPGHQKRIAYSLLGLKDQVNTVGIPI
Experimental: (§1) Specificity Profiling: Yeast Growth Assay
(§2) The yeast growth assay was performed as described in “Method for the identification and/or validation of receptor tyrosine kinase inhibitors” PCT/CH03/00694 (2004/10/24), section “Modes for Carrying out the Invention, Experiment 1 and Experiment 2.
(§3) Briefly, yeast cells carrying plasmids with the RTK of interest were grown in glucose containing medium (repressing expression). The cultures were diluted into galactose containing medium, which induces the expression of the kinase. Expression of the kinase inhibits growth of the yeast cells, which allows for positive selection of kinase inhibitors restoring growth of cells. Compounds were titrated at 7 concentrations between 0.2 and 100 μM.
(§4) Specificity profiling of compounds, using the yeast growth assay method described above. “−” indicates no growth restoration i.e. no activity against the particular kinase, “+”, “++”, and “+++” indicate activity detected by restoration of growth, classified into three categories of potency according to the maximal level of growth restoration reached and the concentration at which the maximal growth restoration is reached.

EphB2 = molecular target: T2, EphB2 (Homo sapiens, UniProt P29323)
T2 construct: expressed in transfected cells; host or cells: yeast
T2 sequence (P29323 19-1055): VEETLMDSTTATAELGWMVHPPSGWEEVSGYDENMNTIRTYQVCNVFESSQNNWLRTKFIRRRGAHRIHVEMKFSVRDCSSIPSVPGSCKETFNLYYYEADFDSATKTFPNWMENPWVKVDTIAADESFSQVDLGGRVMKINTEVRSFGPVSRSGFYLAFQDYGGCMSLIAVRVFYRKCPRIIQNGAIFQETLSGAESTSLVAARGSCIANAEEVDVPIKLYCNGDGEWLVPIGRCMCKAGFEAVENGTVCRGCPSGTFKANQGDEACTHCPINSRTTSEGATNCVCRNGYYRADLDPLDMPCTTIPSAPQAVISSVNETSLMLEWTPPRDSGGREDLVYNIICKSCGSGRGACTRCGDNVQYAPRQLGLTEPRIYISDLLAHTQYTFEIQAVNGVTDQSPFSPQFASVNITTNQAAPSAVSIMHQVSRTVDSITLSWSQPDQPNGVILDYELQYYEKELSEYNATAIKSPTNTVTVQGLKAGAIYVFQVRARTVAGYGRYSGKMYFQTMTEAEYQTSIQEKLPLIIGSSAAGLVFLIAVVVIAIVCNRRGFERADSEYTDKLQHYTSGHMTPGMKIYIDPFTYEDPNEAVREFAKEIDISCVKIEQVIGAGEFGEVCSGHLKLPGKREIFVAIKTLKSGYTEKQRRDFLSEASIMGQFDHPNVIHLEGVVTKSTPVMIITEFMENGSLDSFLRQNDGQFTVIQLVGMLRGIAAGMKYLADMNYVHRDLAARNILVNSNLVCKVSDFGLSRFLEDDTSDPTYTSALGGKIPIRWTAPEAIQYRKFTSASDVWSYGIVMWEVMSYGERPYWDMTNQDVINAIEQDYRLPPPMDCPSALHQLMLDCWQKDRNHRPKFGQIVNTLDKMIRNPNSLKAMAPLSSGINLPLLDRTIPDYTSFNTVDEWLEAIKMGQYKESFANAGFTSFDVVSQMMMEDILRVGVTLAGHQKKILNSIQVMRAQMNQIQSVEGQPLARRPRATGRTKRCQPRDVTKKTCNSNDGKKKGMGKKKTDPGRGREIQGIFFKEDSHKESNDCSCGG
Experimental: as §1, §2, §3, §4

TEK = molecular target: T3, TEK (Homo sapiens, UniProt Q02763)
T3 construct: expressed in transfected cells; host or cells: yeast
T3 sequence (Q02763 23-1124): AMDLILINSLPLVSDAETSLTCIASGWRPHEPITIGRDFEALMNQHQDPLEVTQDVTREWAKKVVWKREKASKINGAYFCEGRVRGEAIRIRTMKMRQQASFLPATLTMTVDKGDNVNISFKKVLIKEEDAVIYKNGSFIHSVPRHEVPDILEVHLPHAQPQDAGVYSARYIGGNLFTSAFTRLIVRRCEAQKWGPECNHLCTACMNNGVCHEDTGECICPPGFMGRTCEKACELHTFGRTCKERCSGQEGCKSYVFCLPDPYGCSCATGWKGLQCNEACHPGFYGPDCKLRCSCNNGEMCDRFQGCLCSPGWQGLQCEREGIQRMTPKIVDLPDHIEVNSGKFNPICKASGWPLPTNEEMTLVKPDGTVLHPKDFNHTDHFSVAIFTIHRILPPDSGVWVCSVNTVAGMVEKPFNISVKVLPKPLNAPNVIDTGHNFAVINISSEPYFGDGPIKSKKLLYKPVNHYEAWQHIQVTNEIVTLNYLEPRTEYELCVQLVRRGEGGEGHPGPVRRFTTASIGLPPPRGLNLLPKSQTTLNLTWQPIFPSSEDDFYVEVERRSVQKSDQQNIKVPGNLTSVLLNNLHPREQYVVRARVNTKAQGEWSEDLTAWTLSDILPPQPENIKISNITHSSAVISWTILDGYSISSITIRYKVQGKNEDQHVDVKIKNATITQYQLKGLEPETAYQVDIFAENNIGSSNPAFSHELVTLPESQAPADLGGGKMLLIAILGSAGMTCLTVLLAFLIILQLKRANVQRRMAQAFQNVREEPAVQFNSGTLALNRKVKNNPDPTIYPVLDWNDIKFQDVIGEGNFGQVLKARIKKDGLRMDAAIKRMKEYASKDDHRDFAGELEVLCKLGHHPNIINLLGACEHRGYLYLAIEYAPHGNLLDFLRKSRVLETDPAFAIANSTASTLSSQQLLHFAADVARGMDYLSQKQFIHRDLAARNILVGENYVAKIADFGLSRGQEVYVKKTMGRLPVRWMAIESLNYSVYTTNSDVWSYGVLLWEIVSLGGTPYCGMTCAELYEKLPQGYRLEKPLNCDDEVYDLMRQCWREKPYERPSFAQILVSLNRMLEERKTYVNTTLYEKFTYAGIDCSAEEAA
Experimental: as §1, §2, §3, §4

Row | Structure (SMILES) | EphA2 growth restoration (EphA2) | EphB2 growth restoration (EphB2) | TEK growth restoration (TEK)
1 | Brc1cccc(Nc2c(-c3ccccc3)nc3cnccn23)c1 [compound 14, (3-Bromo-phenyl)-(2-phenyl-imidazo[1,2-a]pyrazin-3-yl)-amine] | − | − | −
2 | CC(=O)Nc1ccc(-c2nc3cnccn3c2Nc2cccc(Cl)c2)cc1 [compound 8, N-{4-[3-(3-Chloro-phenylamino)-imidazo[1,2-a]pyrazin-2-yl]-phenyl}-acetamide] | + | ++ | −
3 | c1ccc(Nc2c(-c3ccccc3)nc3cnccn23)cc1 [compound 23, Phenyl-(2-phenyl-imidazo[1,2-a]pyrazin-3-yl)-amine] | + | ++ | −
4 | CNc1nccn2c(Nc3cccc(Cl)c3)c(-c3ccccc3)nc12 [compound 20, N′3-(3-Chloro-phenyl)-N′8-methyl-2-phenyl-imidazo[1,2-a]pyrazine-3,8-diamine] | − | − | −
5 | Nc1ccc(-c2nc3cnccn3c2Nc2cccc(Cl)c2)cc1 [compound 10, [2-(4-Amino-phenyl)-imidazo[1,2-a]pyrazin-3-yl]-(3-chloro-phenyl)-amine] | ++ | ++ | −
6 | CC(C)c1nc2cnccn2c1Nc1cccc(Cl)c1 [compound 12, (3-Chloro-phenyl)-(2-isopropyl-imidazo[1,2-a]pyrazin-3-yl)-amine] | + | + | −
7 | Clc1ccc(Nc2c(-c3ccccc3)nc3cnccn23)cc1 [compound 16, (4-Chloro-phenyl)-(2-phenyl-imidazo[1,2-a]pyrazin-3-yl)-amine] | − | − | −
8 | Cc1nccn2c(Nc3cccc(Cl)c3)c(-c3ccccc3)nc12 [compound 3, (3-Chloro-phenyl)-(8-methyl-2-phenyl-imidazo[1,2-a]pyrazin-3-yl)-amine] | − | ++ | −
9 | COc1cccc(-c2nc3cnccn3c2Nc2cccc(Cl)c2)c1 [compound 7, (3-Chloro-phenyl)-[2-(3-methoxy-phenyl)-imidazo[1,2-a]pyrazin-3-yl]-amine] | − | − | −

The remaining lines, values ahead:

Row | EphA2 growth restoration (EphA2) | EphB2 growth restoration (EphB2) | TEK growth restoration (TEK) | Structure (SMILES)
10 | + | ++ | − | c1ccc(Nc2c(-c3ccc(N4CCOCC4)cc3)nc3cnccn23)cc1 [compound 38, [2-(4-Morpholin-4-yl-phenyl)-imidazo[1,2-a]pyrazin-3-yl]-phenyl-amine]
11 | + | +++ | − | Cc1nccn2c(Nc3ccccc3)c(-c3ccccc3)nc12 [compound 39, (8-Methyl-2-phenyl-imidazo[1,2-a]pyrazin-3-yl)-phenyl-amine]
12 | − | + | − | Fc1ccc(Nc2c(-c3ccccc3)nc3cnccn23)cc1F [compound 30, (3,4-Difluoro-phenyl)-(2-phenyl-imidazo[1,2-a]pyrazin-3-yl)-amine]
13 | − | − | − | Clc1cccc(Nc2c(-c3ccccc3)nc3cnccn23)c1 [compound 35, (3-Chloro-phenyl)-(2-phenyl-imidazo[1,2-a]pyrazin-3-yl)-amine]
14 | + | +++ | − | COc1cccc(-c2nc3c(C)nccn3c2Nc2cccc(Cl)c2)c1 [compound 48, (3-Chloro-phenyl)-[2-(3-methoxy-phenyl)-8-methyl-imidazo[1,2-a]pyrazin-3-yl]-amine]
15 | − | ++ | − | Cc1nccn2c(Nc3ccc(F)c(F)c3)c(-c3ccccc3)nc12 [compound 45, (3,4-Difluoro-phenyl)-(8-methyl-2-phenyl-imidazo[1,2-a]pyrazin-3-yl)-amine]
16 | + | +++ | − | COc1cccc(-c2nc3c(C)nccn3c2Nc2cccc(C)c2)c1 [compound 42, [2-(3-Methoxy-phenyl)-8-methyl-imidazo[1,2-a]pyrazin-3-yl]-m-tolyl-amine]
17 | − | ++ | − | Cc1cccc(Nc2c(-c3ccccc3)nc3c(C)nccn23)c1 [compound 43, (8-Methyl-2-phenyl-imidazo[1,2-a]pyrazin-3-yl)-m-tolyl-amine]
18 | − | +++ | − | Cc1nccn2c(Nc3cccc(F)c3)c(-c3ccccc3)nc12 [compound 44, (3-Fluoro-phenyl)-(8-methyl-2-phenyl-imidazo[1,2-a]pyrazin-3-yl)-amine]
19 | + | +++ | − | CC(=O)Nc1ccc(-c2nc3c(C)nccn3c2Nc2cccc(Cl)c2)cc1 [compound 33, N-{4-[3-(3-Chloro-phenylamino)-8-methyl-imidazo[1,2-a]pyrazin-2-yl]-phenyl}-acetamide]
20 | − | + | − | Fc1cccc(Nc2c(-c3ccccc3)nc3cnccn23)c1 [compound 26, (3-Fluoro-phenyl)-(2-phenyl-imidazo[1,2-a]pyrazin-3-yl)-amine]
21 | − | − | − | Cc1cccc(Nc2c(-c3ccccc3)nc3cnccn23)c1 [compound 34, (2-Phenyl-imidazo[1,2-a]pyrazin-3-yl)-m-tolyl-amine]
